Assay [1] deals with protein-DNA binding to GHRE DNA probe. Description: EMSA with GHRE DNA probe, HX rat liver nuclear extracts. Also on record: species or system Sprague Dawley rat. Conditions: HX rats stimulated with hGH vs control animals. The method, then: (§1) Nuclear and cytosolic fractions were prepared from hypophysectomized Sprague Dawley rat livers (ethical license N176/02). The rats had minipumps implanted at 5 weeks of age for administration of hGH. Control animals were not stimulated and thus completely GH-deficient while GH-animals were stimulated continuously with hGH 0.12 mg/kg/day for five days. Animals were anaesthetized and livers were cut out and placed in ice-cold PBS. Livers were then cut into smaller pieces and transferred to 8 ml ice-cold hypotonic buffer with protease and phosphatase inhibitors and were allowed to swell on ice for 10 minutes. […]
(§2) Extraction of nuclear proteins: To extract the proteins from the nuclei, the nuclear pellets were re-suspended in 2×lysis buffer with protease and phosphatase inhibitors (100 mM HEPES, pH 7.6, 300 mM NaCl, 10 mM EDTA (GIBCO), 2% Triton X-100 (Sigma), 0.2 mM PMSF, 0.2 mM sodium orto-vanadate, 2 nM okadaic acid, 1×complete), or EMSA buffer with inhibitors (20 mM Tris pH 8.0, 1.5 mM MgCl2, 0.2 mM EDTA, 25% glycerol, 0.5 mM PMSF, 0.2 mM sodium ortho-vanadate, 2 nM okadaic acid, 1×complete protease inhibitor), depending on whether the samples should also be used in electrophoresis mobility shift assays (EMSA) or not. For an optimal protein extraction, three different methods were evaluated. […]
A general note: A gel shift assay detects complexes by their altered migration in electrophoresis.

Assay [2] concerns protein interactions with OCT1 DNA probe. Description: EMSA with OCT1 DNA probe, nuclear extracts of WRL-68 cells. It is filed as cell-based, human. The following applies: stimulated. The method, then:
(§3) Cell culture: WRL-68 cells, a human fetal hepatic cell-line, were cultured in EMEM medium with NaHCO3 (Statens Veterinärmedicinska Anstalt), supplemented with 10% fetal bovine serum (FBS), 2% L-Glutamine, 1% Pyruvate and 1% Non essential amino acids (NEA), all from GIBCO. The cells were sub-cultivated twice weekly by trypsination to maintain a cell density of approximately 80%.
(§4) Transfection: Cells were transfected with human full-length GH-receptor (pMB1288, 2 μg/μl) by using DOTAP Liposomal Transfection Reagent (Roche), according to manufacturers manual. With this reagent a cationic liposome-mediated transfection method (lipofection) is used. […]
as §2

Assay [3] deals with protein-DNA binding to OCT1 DNA probe. Description: EMSA with OCT1 DNA probe, HX rat liver nuclear extracts. Also on record: species or system Sprague Dawley rat. The following applies: HX rats stimulated with hGH vs control animals. The method, then: as §1, §2
Assay [4] deals with protein interactions with GHRE DNA probe. The assay is described as follows: EMSA with GHRE DNA probe, nuclear extracts of GHR-transfected and non-transfected WRL-68 cells. It is filed as cell-based, human. Here is the method: as §3
Transfection: Cells were transfected with human full-length GH-receptor (pMB1288, 2 μg/μl) by using DOTAP Liposomal Transfection Reagent (Roche), according to manufacturers manual. With this reagent a cationic liposome-mediated transfection method (lipofection) is used. T75 flasks with WRL-68 cells were transfected with 10 μg DNA for each flask. 5 μl (10 μg) DNA was diluted with 250 μl OPTIMEM1 medium (GIBCO) and mixed gently with 75 μl DOTAP reagent diluted in 175 μl OPTIMEM1 medium. The mixture was incubated for 10 minutes and then mixed gently with 10 ml OPTIMEM1 medium. Cells were washed once and then incubated for 4 hours with the DNA/DOTAP transfection mix, which was then changed to fresh culture medium. Cells were re-seeded into new culture dishes the following day.
(§5) Stimulation: Cells were stimulated two days after transfection at a confluence of approximately 80%. […]
(§6) Extraction of nuclear proteins: To extract the proteins from the nuclei, the nuclear pellets were re-suspended in 2×lysis buffer with protease and phosphatase inhibitors (100 mM HEPES, pH 7.6, 300 mM NaCl, 10 mM EDTA (GIBCO), 2% Triton X-100 (Sigma), 0.2 mM PMSF, 0.2 mM sodium orto-vanadate, 2 nM okadaic acid, 1×complete), or EMSA buffer with inhibitors (20 mM Tris pH 8.0, 1.5 mM MgCl2, 0.2 mM EDTA, 25% glycerol, 0.5 mM PMSF, 0.2 mM sodium ortho-vanadate, 2 nM okadaic acid, 1×complete protease inhibitor), depending on whether the samples should also be used in electrophoresis mobility shift assays (EMSA) or not. For an optimal protein extraction, three different methods were evaluated. […] Optimal extraction was evaluated by Western blot and protein concentration determination as described below. […]

Assay [5] relates to AP1 transcription factor binding to AP1 DNA probe. The assay is described as follows: EMSA with AP1 DNA probe (control), nuclear extracts of non-transfected WRL-68 cells. It is filed as cell-based, human. The following applies: stimulated. Here is the method:
as §3, §5, §6

Assay [6] deals with protein-DNA interaction with AP2 DNA probe. Description: EMSA with AP2 DNA probe, HX rat liver nuclear extracts. The arrangement: species or system Sprague Dawley rat. Conditions: hGH stimulated animals compared to control animals. Here is the method:
as §1, §2

Assay [7] relates to protein interactions with AP2 DNA probe. Description: EMSA with AP2 DNA probe, nuclear extracts of GHR-transfected WRL-68 cells. The following applies: stimulated. It is filed as cell-based, human. The method, then: as §3, §4, §2
Assay [8] addresses T1, GH receptor interaction with other transcription factors (Homo sapiens, UniProt P10912).
T1 construct: Cells were transfected with human full-length GH-receptor (pMB1288, 2 μg/μl); expressed in transfected cells; host or cells: WRL-68 (human fetal hepatic cell line), plasmid pMB1288
T1 sequence (P10912 19-638): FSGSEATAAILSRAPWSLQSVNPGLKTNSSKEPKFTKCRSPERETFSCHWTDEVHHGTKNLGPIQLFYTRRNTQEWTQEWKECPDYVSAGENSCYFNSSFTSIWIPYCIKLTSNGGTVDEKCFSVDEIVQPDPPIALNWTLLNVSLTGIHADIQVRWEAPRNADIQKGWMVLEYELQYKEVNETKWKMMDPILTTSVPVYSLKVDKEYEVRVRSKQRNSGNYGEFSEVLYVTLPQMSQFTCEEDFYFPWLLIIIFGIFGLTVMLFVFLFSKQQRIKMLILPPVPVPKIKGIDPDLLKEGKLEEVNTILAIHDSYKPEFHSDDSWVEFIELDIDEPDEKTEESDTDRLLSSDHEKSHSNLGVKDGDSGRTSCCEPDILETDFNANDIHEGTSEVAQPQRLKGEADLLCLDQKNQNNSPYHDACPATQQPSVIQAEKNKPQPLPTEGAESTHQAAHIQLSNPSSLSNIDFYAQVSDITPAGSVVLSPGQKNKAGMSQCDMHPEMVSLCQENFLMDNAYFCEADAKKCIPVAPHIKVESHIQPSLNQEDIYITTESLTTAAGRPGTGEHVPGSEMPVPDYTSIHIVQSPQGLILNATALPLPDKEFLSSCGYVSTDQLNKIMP
Description: Electrophoretic mobility shift assays, GH-receptor transfected cells (summary). It is filed as cell-based. The following applies: treatment with BVTA. Here is the method:
Electrophoretic Mobility Shift Assay: Electrophoretic Mobility Shift Assay (EMSA) is a method used to investigate protein-DNA interactions. A DNA probe with a known sequence is end-labeled with ^33P-ATP and then incubated with nuclear extracts. Proteins that bind specifically to the DNA-probe will reduce the mobility of the complex when separated on a non-denaturing poly acryl-amid gel and a shifted band can be seen. To identify proteins bound to the DNA-probe, an antibody can be added to the nuclear extract before incubation with the DNA-probe. If the antibody recognizes a protein that binds to the DNA, the mobility of the complex will be reduced even further and cause a supershift.

In the next assay the test system is GH-inducible mRNA. Description: GH-inducible mRNA level. It is filed as cell-based.

For the molecule “hGH: human growth hormone (Genotropin, Pharmacia)”, in [1], the “protein-DNA binding, GHRE probe, hGH stimulation” value is “did not show any differences”. For the same molecule, the “protein-DNA interaction, top specific band, OCT1 probe” value in assay [2] was “No effects”. Also, the “protein-DNA binding, OCT1 probe, hGH stimulation” value in assay [3] was “did not show any differences”. The “effect of stimulation on shifted bands, GHRE probe” value in assay [4] (both GHR-transfected and non-transfected WRL-68 cells) is “No effect”. Besides, the “effect on AP1 shifted band” value in assay [5] was “no effects”. In addition, the “protein-DNA binding, AP2 probe, hGH stimulation” value in [6] is given as “No difference in protein-DNA binding”. Besides, the “protein-DNA interaction, top specific band, AP2 probe” value in [7] is “no effects”.

In the case of `Cc1ccc(S(N)(=O)=O)cc1NC(=O)c1ccc(Br)o1` [BVTA, N-[5-(aminosulfonyl)-2-methylphenyl]-5-bromo-2-furamide], in [2], the “protein-DNA interaction, top specific band, OCT1 probe” value is recorded as “decreased”. Moreover, the “protein-DNA interaction in top shifted band, GHRE probe” value in assay [4] (GHR-transfected WRL-68 cells stimulated with BVTA) is on record as “disrupted”. The “effect on GHRE top weak band” value in assay [4] (non-transfected WRL-68 cells, stimulated) is “no effect”. Besides, in assay [8], the “interaction of GH receptor with other transcription factors” value was “down regulated”. In [5], the “effect on AP1 shifted band” value is given as “no effects”. Also, in the assay on GH-inducible mRNA, the “GH-inducible mRNA” value is on record as “decrease”. For the same molecule, the “protein-DNA interaction, top specific band, AP2 probe” value in assay [7] was “broke the protein-DNA interaction”.

The values are drawn from US7285392B2, “Methods for identifying active compounds” (Biovitrum AB, priority 2003, dated 2007).
